14 compounds from patent US10208011B2, “Benzothiophene estrogen receptor modulators” (G1 Therapeutics, Inc., priority 2017, dated 2019) can be followed below.

The target of experiment [1] is estrogen receptor α in MCF7 cells (Homo sapiens (Human), UniProt P03372). In words: Estrogen Receptor (ER) Degradation Assay (In-Cell Western). The experiment is classed as cell-based. The conditions noted are these: for IC50: 24 hours, In-Cell Western; for % Estrogen Receptor Remaining: vehicle set to 100%. As for the experimental part: A screening strategy was implemented utilizing an In-Cell Western assay to measure their ability to degrade the estrogen receptor in vitro. MCF7 cells, which are estrogen receptor positive, were plated at a cell density of […] into black walled clear bottom 96-well plates. Cells were incubated in phenol red free Dulbecco's Modified Eagle Media (DMEM) supplemented with 8% charcoal-stripped fetal bovine calf serum for 24 hours in a humidified 37° C. incubator. Concentrated stock compounds were diluted to 10× in complete media. Compounds were added to the plated cells in a dose-dependent manner ranging from 1E-12 to 1E-05 M and incubated for an additional 24 hours at 37° C. Culture medium was removed from the culture plates by gentle inversion. Cells were fixed in 4% paraformaldehyde in 1× phosphate buffered saline-calcium magnesium free (PBS-CMF) for 15 minutes at room temperature, washed 3 times for 5 minutes each in 1×PBS-CMF. Cells were permeabilized in immunofluorescence (IF) blocking buffer (Cell Signaling #12411) containing 0.3% Triton X100. Cells were washed 3 times for 5 minutes each in 1×PBS-CMF and incubated in estrogen receptor α (D6R2W) rabbit primary antibody (Cell Signaling #13258) diluted 1:300 in IF antibody dilution buffer (Cell Signaling #12378). Cells were washed 3 times for 5 minutes each in 1×PBS-CMF and stained with goat anti-rabbit (Biotium #CF770) secondary antibody diluted 1:2000 in IF antibody dilution buffer and normalizing stain CellTag 700 diluted 1:500 (Licor #926-41090). ER protein expression was assessed by the Licor Odyssey CLx imaging system using Image Studio v5.2. Data is processed utilizing GraphPad Prism 7 by subtracting background from the vehicle and setting the vehicle to 100% ER activity, followed by comparing treated samples to vehicle. This procedure was used to produce the graph in FIG. 2, FIG. 3, FIG. 4, FIG. 5, FIG. 6, FIG. 7, and FIG. 8.
Sequence of estrogen receptor α in MCF7 cells (P03372 whole entry): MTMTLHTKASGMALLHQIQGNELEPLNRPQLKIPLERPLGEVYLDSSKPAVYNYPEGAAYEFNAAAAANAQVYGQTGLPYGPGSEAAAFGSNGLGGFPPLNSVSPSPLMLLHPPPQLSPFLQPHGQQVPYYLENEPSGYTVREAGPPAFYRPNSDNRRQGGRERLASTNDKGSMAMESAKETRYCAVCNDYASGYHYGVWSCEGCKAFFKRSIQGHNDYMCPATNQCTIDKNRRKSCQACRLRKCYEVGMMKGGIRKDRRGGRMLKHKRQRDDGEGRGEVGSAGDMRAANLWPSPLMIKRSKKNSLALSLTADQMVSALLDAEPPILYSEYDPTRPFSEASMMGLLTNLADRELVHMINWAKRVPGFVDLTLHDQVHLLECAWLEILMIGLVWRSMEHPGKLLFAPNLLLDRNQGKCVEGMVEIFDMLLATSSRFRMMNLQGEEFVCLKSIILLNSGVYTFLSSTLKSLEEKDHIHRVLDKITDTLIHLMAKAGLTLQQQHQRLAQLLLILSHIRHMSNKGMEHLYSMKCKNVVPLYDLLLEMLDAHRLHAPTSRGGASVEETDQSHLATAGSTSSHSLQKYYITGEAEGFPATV
(§1) In the below table for the Estrogen Receptor Degradation Assay and the Human ERα Reporter Assay: […]

Experiment [2] has as its target human estrogen receptor (ERα) (Homo sapiens (Human), UniProt P03372). The experiment can be described thus: Human ERα Reporter Assay (Indigo Biosciences). The experiment is classed as cell-based. The following applies: antagonist mode, 17β-estradiol 8E-10 M, 24 hours. How it is done:
All reagents used in this assay was supplied in the Human ERα Reporter Assay by Indigo Biosciences # IB00401. In an effort to screen selective estrogen receptor degraders (SERDs), the Human ERα Reporter Assay, supplied by Indigo Biosciences, was utilized to quantify antagonist functional activity against the human estrogen receptor. Reporter cells were thawed at 37° C. and added to pre-warmed to 37° C. cell recovery medium (CRM). Stock concentration of 17β-estradiol was serially diluted in CRM. Diluted 17β-estradiol was added to CRM containing reporter cells resulting in a working concentration of 1.6 nM (2×). Cells plus 17β-estradiol were dispensed in a kit-supplied white walled 96-well plate. Concentrated stocks of test compounds were diluted to 2× working concentrations in cell screening medium (CSM). 2× concentrated compounds were added to the plated cells in a dose-dependent manner resulting in a final concentration range of 1E-11 to 1E-5 M and a final 17β-estradiol concentration of 8E-10 M. Assay plates were incubated for 24 hours in a humidified 37° C. incubator. Culture medium was removed from the assay plates by inversion. Detection substrate and buffer was warmed to room temperature, mixed thoroughly, and immediately added to the assay plates. Assay plates were incubated for 15 minutes at room temperature protected from light. Luminescence was measured in a Synergy HTX luminescence plate reader. Data is processed utilizing GraphPad Prism 7 by graphing the relative light units measured at each compound concentration. This procedure was used to produce the graph in FIG. 1, FIG. 9, FIG. 10, FIG. 11, FIG. 12, FIG. 13, and FIG. 14.
as §1

Sequence of human estrogen receptor (ERα) (P03372 whole entry): as above

The term IC50 denotes the midpoint of a concentration-inhibition curve. In the case of `Cc1cc(F)cc(C)c1C(=O)c1sc2cc(O)ccc2c1-c1ccc(OCCN2CCC(CF)CC2)cc1` [Compound 124, (4-fluoro-2,6-dimethylphenyl)(3-(4-(2-(4-(fluoromethyl)piperidin-1-yl)ethoxy)phenyl)-6-hydroxybenzo[b]thiophen-2-yl)methanone], in experiment [1], the IC50 is under 1000 nM and the “% Estrogen Receptor Remaining” value was “*** (*** denotes 41-70% Estrogen Receptor remaining)”. In experiment [2], the IC50 was under 50000 nM.

For the compound `CNCCCc1ccc(Oc2c(C(=O)c3c(C)cc(F)cc3C)sc3cc(O)ccc23)cc1` [Compound 116, (4-fluoro-2,6-dimethylphenyl)(6-hydroxy-3-(4-(3-(methylamino)propyl)phenoxy)benzo[b]thiophen-2-yl)methanone], in experiment [1], the IC50 is under 1000 nM and the “% Estrogen Receptor Remaining” value is on record as “*** (*** denotes 41-70% Estrogen Receptor remaining)”. Further, the IC50 in experiment [2] was under 1000 nM.

For `Cc1cc(F)cc(C)c1C(=O)c1sc2cc(O)ccc2c1Oc1ccc(CCNC2CCCCC2)cc1` [Compound 110, (3-(4-(2-(cyclohexylamino)ethyl)phenoxy)-6-hydroxybenzo[b]thiophen-2-yl)(4-fluoro-2,6-dimethylphenyl)methanone], in experiment [1], the IC50 is under 1000 nM and the “% Estrogen Receptor Remaining” value is reported as “*** (*** denotes 41-70% Estrogen Receptor remaining)”. Also, the IC50 in experiment [2] is under 1000 nM.

On to `CCC(CC)NCCc1ccc(Oc2c(C(=O)c3c(C)cc(F)cc3C)sc3cc(O)ccc23)cc1` [Compound 109, (4-fluoro-2,6-dimethylphenyl)(6-hydroxy-3-(4-(2-(pentan-3-ylamino)ethyl)phenoxy)benzo[b]thiophen-2-yl)methanone], for which, in experiment [1], the IC50 is under 1000 nM and the “% Estrogen Receptor Remaining” value is on record as “*** (*** denotes 41-70% Estrogen Receptor remaining)”. Also, the IC50 in experiment [2] was under 1000 nM.

Turning to `Cc1cc(F)cc(C)c1C(=O)c1sc2cc(O)ccc2c1Oc1ccc(CN(C)C)cc1` [Compound 114, (3-(4-((dimethylamino)methyl)phenoxy)-6-hydroxybenzo[b]thiophen-2-yl)(4-fluoro-2,6-dimethylphenyl)methanone], in experiment [1], the IC50 was under 1000 nM and the “% Estrogen Receptor Remaining” value was “** (** denotes 71-90% Estrogen Receptor remaining)”. In addition, the IC50 in experiment [2] was under 1000 nM.

With `Cc1cc(F)cc(C)c1C(=O)c1sc2cc(O)ccc2c1Oc1ccc(N2CCCCCC2)cc1` [Compound 102, (3-(4-(azepan-1-yl)phenoxy)-6-hydroxybenzo[b]thiophen-2-yl)(4-fluoro-2,6-dimethylphenyl)methanone], in experiment [1], the IC50 was under 1000 nM and the “% Estrogen Receptor Remaining” value is “*** (*** denotes 41-70% Estrogen Receptor remaining)”. The IC50 in experiment [2] was under 1000 nM.

For the compound `Cc1cc(F)cc(C)c1C(=O)c1sc2cc(O)ccc2c1-c1ccc(CCN2CC(CF)C2)cc1` [Compound 119, (4-fluoro-2,6-dimethylphenyl)(3-(4-(2-(3-(fluoromethyl)azetidin-1-yl)ethyl)phenyl)-6-hydroxybenzo[b]thiophen-2-yl)methanone], in experiment [1], the IC50 was under 1000 nM and the “% Estrogen Receptor Remaining” value is “*** (*** denotes 41-70% Estrogen Receptor remaining)”. Besides, the IC50 in experiment [2] was under 1000 nM.

In the case of `Cc1cc(F)cc(C)c1C(=O)c1sc2cc(O)ccc2c1Oc1ccc(CCN2CC[C@H](C)C2)cc1` [Compound 118, (S)-(4-fluoro-2,6-dimethylphenyl)(6-hydroxy-3-(4-(2-(3-methylpyrrolidin-1-yl)ethyl)phenoxy)benzo[b]thiophen-2-yl)methanone], in experiment [1], the IC50 is under 1000 nM and the “% Estrogen Receptor Remaining” value is reported as “*** (*** denotes 41-70% Estrogen Receptor remaining)”. In addition, the IC50 in experiment [2] was under 1000 nM.

For `CCNCCc1ccc(Oc2c(C(=O)c3c(C)cc(F)cc3C)sc3cc(O)ccc23)cc1` [Compound 100, (3-(4-(2-(ethylamino)ethyl)phenoxy)-6-hydroxybenzo[b]thiophen-2-yl)(4-fluoro-2,6-dimethylphenyl)methanone], the IC50 in experiment [1] and in experiment [2] was under 1000 nM each time. Further, the “% Estrogen Receptor Remaining” value in experiment [1] is given as “**** (**** denotes 0-40% Estrogen Receptor remaining)”.

Regarding `Cc1cc(F)cc(C)c1C(=O)c1sc2cc(O)ccc2c1Oc1ccc(CCN2CC(CF)C2)cc1` [Compound 117, (4-fluoro-2,6-dimethylphenyl)(3-(4-(2-(3-(fluoromethyl)azetidin-1-yl)ethyl)phenoxy)-6-hydroxybenzo[b]thiophen-2-yl)methanone], the IC50 in experiment [1] and in experiment [2] was under 1000 nM each time. Moreover, in experiment [1], the “% Estrogen Receptor Remaining” value was “*** (*** denotes 41-70% Estrogen Receptor remaining)”.

As to `Cc1cc(F)cc(C)c1C(=O)c1sc2cc(O)ccc2c1Oc1ccc(CCN)cc1` [Compound 104, (3-(4-(2-aminoethyl)phenoxy)-6-hydroxybenzo[b]thiophen-2-yl)(4-fluoro-2,6-dimethylphenyl)methanone], in experiment [1], the IC50 is under 1000 nM and the “% Estrogen Receptor Remaining” value was “*** (*** denotes 41-70% Estrogen Receptor remaining)”. The half-maximal inhibitory concentration (IC50) in experiment [2] was under 1000 nM.

Regarding `CCN(CC)CCc1ccc(Oc2c(C(=O)c3c(C)cc(F)cc3C)sc3cc(O)ccc23)cc1` [Compound 112, (3-(4-(2-(diethylamino)ethyl)phenoxy)-6-hydroxybenzo[b]thiophen-2-yl)(4-fluoro-2,6-dimethylphenyl)methanone], the IC50 in experiment [1] and in experiment [2] was under 1000 nM throughout. For the same compound, the “% Estrogen Receptor Remaining” value in experiment [1] was “*** (*** denotes 41-70% Estrogen Receptor remaining)”.

Regarding `CCC(C)NCCc1ccc(Oc2c(C(=O)c3c(C)cc(F)cc3C)sc3cc(O)ccc23)cc1` (stereo not drawn) [Compound 111, (3-(4-(2-(sec-butylamino)ethyl)phenoxy)-6-hydroxybenzo[b]thiophen-2-yl)(4-fluoro-2,6-dimethylphenyl)methanone], in experiment [1], the IC50 was under 1000 nM and the “% Estrogen Receptor Remaining” value is given as “**** (**** denotes 0-40% Estrogen Receptor remaining)”. The IC50 in experiment [2] is under 1000 nM.

As for `Cc1cc(F)cc(C)c1C(=O)c1sc2cc(O)ccc2c1Oc1ccc(C2CCCNC2)cc1` (stereo not drawn) [Compound 103, (4-fluoro-2,6-dimethylphenyl)(6-hydroxy-3-(4-(piperidin-3-yl)phenoxy)benzo[b]thiophen-2-yl)methanone], in experiment [1], the IC50 was under 50000 nM and the “% Estrogen Receptor Remaining” value is listed as “**** (**** denotes 0-40% Estrogen Receptor remaining)”. Also, in experiment [2], the IC50 was under 1000 nM.
